Source: publication PMC11435625, “In Vitro Hepatic Clearance Evaluations of Per- and Polyfluoroalkyl Substances (PFAS) across Multiple Structural Categories” (Toxics, 2024)

Experiments:
[1] = IVIVE: steady-state concentration (Css), generic HTTK model; design: species or system human; details: for Css (mg/L) / Css (uM): Assuming 1 mg/kg/day dose rate, BW 70 kg; for CLhep: QL 1500000 uL/min; for Fub: fub=fup/(B:P), Fub set to 1 if needed; for CLint: scaled to whole liver: HPGL 110 mill cells/g, Vl 1596 g
Method: IVIVE was performed as previously described to calculate human steady-state concentrations (Css). Briefly, experimental plasma protein binding data presented elsewhere were transformed to fraction unbound in blood using blood-to-plasma partitioning values. Experimental Clint values generated here are used in conjunction with relevant liver scalars to scale up to estimate whole liver clearance. […] Once Css values were established, these were used with the PFAS-specific in vitro POD data to calculate the administered equivalent doses (AEDs) using reverse dosimetry. […] The fifth-percentile AC50 value was used to define the in vitro POD. All relevant inputs, scalars, and calculations are provided in Supplementary Information, as indicated in the results.

[2] = system: pooled primary human hepatocyte suspensions; test: Hepatic clearance assay (substrate depletion, LC-MS); details: in µL/min/10^6 cells; for CLint for HTTK: CLint value carried into HTTK/IVIVE; for in vitro CLint exp assay / Unadj Clint: pooled primary human hepatocyte suspensions; for Unadj Clint: unadjusted hepatic intrinsic clearance, Table S4
Method: The rate of hepatic clearance was determined as previously described for a set of PFAS [11]. Analysis was conducted across two laboratories at the Division of Translational Toxicology (DTT) at the National Institute of Environmental Health Sciences (NIEHS) and the Center for Computational Toxicology and Exposure at the USEPA. The PFAS analyzed in each lab can be found in the Supplementary Materials.
The hepatic clearance assay was performed at both the DTT and EPA laboratories as described below. The pooled human hepatocyte suspensions used in this work were purchased commercially and meet the ethical and scientific standards described in the Human Ethics Rule (40 CFR 26). The suspensions were prepared from hepatocytes obtained from de-identified donors by a commercial vendor.
PFAS stock solutions prepared in DMSO were added to prewarmed William’s E medium to make a 2X working stock solution (2 µM). […] The working stock solutions were then transferred to a 96-well polypropylene plate and placed in an incubator at 37 °C with 5% carbon dioxide prior to adding cells. Cryopreserved pooled primary human hepatocyte suspensions (50-donor pool, mixed gender; BioIVT; Westbury, NY, USA) were thawed and transferred to vials containing hepatocyte thawing medium. After centrifuging for 5–10 min at 100× g, thawing medium was removed, being careful not to disturb the cell pellet. The primary human hepatocytes were then resuspended in pre-warmed complete Williams E medium to achieve a cell density of ~1.0 × 10^6 viable cells/mL as determined by Trypan Blue exclusion. Cells were then added to the 96-well incubation plates containing PFAS to achieve a final density of ~0.5 × 10^6 viable cells/mL and a 1 μM assay concentration (Ctest), then placed in incubator on a shaker at 300 rpm. Triplicate samples were removed from the incubator at time points ranging from 0 to 240 min and quenched with a total crash in 2–3 volumes of ice-cold acetonitrile. Samples were spun at 4000× g for 20 min, and supernatants were transferred to new tubes and stored at <−70 °C until analysis. Media-only (no cell) and/or heat-inactivated hepatocytes were included as negative controls for each chemical to evaluate and estimate chemical loss due to nonmetabolic processes (e.g., hydrolysis). Phenacetin was included in all runs as an assay reference compound; EPA also included propranolol as an additional reference compound.
Assay samples were diluted in mobile phase and analyzed using a Thermo Vanquish UPLC system with a Thermo Hypersil Gold aQ C18 column (100 × 2.1 mm, 1.9 […], Thermo Fisher Scientific Inc.) coupled to a Q Exactive Plus mass spectrometer. Gradient elution was used in the chromatographic separations using water with 20 mM ammonium acetate (mobile phase A) and methanol (mobile phase B), with the following gradient program: 0.5–7 min, 30%–90% B; 7–8 min, 90% B; 8–9 min, 90%–30% B; and 9–10 min, 30% B. The first minute of each injection was diverted to waste to avoid introduction of excessive salts from incubation medium. Analysis was detected in negative ion mode. Samples were quantified against an external, matrix-matched calibration curve. Additional methodologic information is available in Table S2.
To perform SPE, a positive-pressure manifold was employed along with Oasis WAX µElution plates and Oasis HLB 30 mg plates (Waters, Milford, MA, USA) for PFAS and positive-control extraction, respectively. […] The sorbent was then washed with 1% formic acid and water. Samples were eluted in 2% ammonia in methanol for analysis. Similarly, HLB plates were conditioned with methanol and water before sample was loaded onto the sorbent. The wells were then washed with 5% methanol in water and water before elution in methanol. For samples not undergoing SPE, the supernatant of the crashed assay sample was diluted in mobile phase prior to analysis. The first 1.5 min of the run was diverted to waste to prevent salt contamination.

plasma protein = details: fraction unbound in plasma, input for IVIVE calculations; cited from earlier work

Row | SMILES | Css (mg/L) [1] [mg/L] | Css (uM) [1] [µM] | CLhep [1] [L/h] | Fub [1] | CLint [1] [µL/min] | CLint for HTTK [2] | in vitro CLint exp assay [2] | Mean fu (plasma protein) | Unadj Clint [2]
1 | NS(=O)(=O)C(F)(F)C(F)(F)C(F)(F)C(F)(F)C(F)(F)C(F)(F)C(F)(F)C(F)(F)F [Perfluorooctane sulfonamide (PFOSA)] | 2.16 | 4.33 | 1.313 | 0.007091 | 3131990 | 17.84 | 17.84 | 0.0039 | 
2 | O=S(=O)([O-])C(F)(F)C(F)(F)C(F)(F)C(F)(F)C(F)(F)C(F)(F)C(F)(F)C(F)(F)F.[K+] | 60.34 | 120.69 | 0.000 | 0.007273 | 0 | 0 | 2.96 | 0.004 | 
3 | O=C(O)CCC(F)(F)C(F)(F)C(F)(F)C(F)(F)C(F)(F)C(F)(F)F [6:3 Fluorotelomer carboxylic acid] |  |  |  |  |  |  |  |  | 5.05
4 | O=C(O)C(F)(F)C(F)(F)C(F)(F)C(F)(F)C(F)(F)C(F)(F)C(F)(F)F [Perfluorooctanoic acid (PFOA)] | 241.34 | 582.99 | 0.000 | 0.001818 | 0 | 0 | 0 | 0.001 | 
5 | O=C(O)C(F)(F)C(F)(F)F [Perfluoropropanoic acid (PFPrA)] | 0.78 | 4.74 | 0.000 | 0.5651 | 0 | 0 | 0 | 0.3108 | 
6 | O=C(O)C(F)(F)C(F)(F)C(F)(F)OC(F)(F)F [Perfluoro(4-methoxybutanoic) acid] |  |  |  |  |  |  |  |  | 1.50
7 | O=C(O)C(F)(F)C(F)(F)C(F)F [4H-Perfluorobutanoic acid] |  |  |  |  |  |  |  |  | 0.90
8 | O=C(O)C(F)(F)C(F)(F)C(F)F [4H-perfluorobutanoic acid (4H-PFBA)] | 1.41 | 7.18 | 0.000 | 0.3116 | 0 | 0 | 0 | 0.1714 | 
9 | O=C(O)C(F)(F)OC(F)(F)C(F)(F)OC(F)(F)F [Perfluoro-3,6-dioxaheptanoic acid] |  |  |  |  |  |  |  |  | 0.00
10 | O=C(O)C(F)(F)C(F)(F)F [Perfluoropropanoic acid] |  |  |  |  |  |  |  |  | 0.59
11 | O=C(O)CCC(F)(F)C(F)(F)C(F)(F)F | 4.66 | 19.25 | 0.000 | 0.09418 | 0 | 0 | 0 | 0.0518 | 
12 | O=C(O)C(F)(F)C(F)(F)C(F)(F)C(F)(F)C(F)(F)C(F)(F)C(F)F [8H-Perfluorooctanoic acid (8H-PFOA)] | 114.93 | 290.23 | 0.000 | 0.003818 | 0 | 0 | 0 | 0.0021 | 
13 | N.O=C(O)C(F)(F)C(F)(F)C(F)(F)C(F)(F)C(F)(F)C(F)(F)C(F)(F)F [Ammonium perfluorooctanoate] |  |  |  |  |  |  |  |  | 2.06
14 | O=C(Cl)C(F)(F)C(F)(F)C(F)(F)C(F)(F)C(F)(F)C(F)(F)F [Perfluoroheptanoyl chloride (PFHpA-Cl)] | 180.82 | 473.43 | 0.000 | 0.002427 | 0 | 0 | 0 | 0.0017 | 
15 | O=S(=O)([O-])C(F)(F)C(F)(F)C(F)(F)C(F)(F)C(F)(F)C(F)(F)C(F)(F)C(F)(F)C(F)(F)C(F)(F)F.[Na+] [Sodium perfluorodecanesulfonate] |  |  |  |  |  |  |  |  | 3.39
16 | CCNS(=O)(=O)C(F)(F)C(F)(F)C(F)(F)C(F)(F)C(F)(F)C(F)(F)C(F)(F)C(F)(F)F | 0.58 | 1.10 | 4.700 | 0.05255 | 1573018 | 8.96 | 8.96 | 0.0289 | 
17 | N.O=C(O)C(F)(F)C(F)(F)C(F)(F)C(F)(F)C(F)(F)C(F)(F)C(F)(F)F [Ammonium perfluorooctanoate (NH4PFOA)] | 81.36 | 196.53 | 0.028 | 0.001273 | 361654 | 2.06 | 2.06 | 0.0007 | 
18 | O=S(=O)([O-])C(F)(F)C(F)(F)C(F)(F)C(F)(F)C(F)(F)C(F)(F)C(F)(F)C(F)(F)F.[K+] [Potassium perfluorooctanesulfonate] |  |  |  |  |  |  |  |  | 2.96
19 | CNS(=O)(=O)C(F)(F)C(F)(F)C(F)(F)C(F)(F)C(F)(F)C(F)(F)C(F)(F)C(F)(F)F | 0.58 | 1.13 | 4.921 | 0.02127 | 4078259 | 23.23 | 23.23 | 0.0117 | 
20 | O=C(O)C(F)(F)C(F)(F)C(F)(F)F [Perfluorobutanoic acid] |  |  |  |  |  |  |  |  | 0.08
21 | O=C(O)C(F)(F)C(F)(F)C(F)(F)C(F)(F)C(F)(F)C(F)(F)C(F)(F)F [Sodium perfluorooctanoate] |  |  |  |  |  |  |  |  | 2.34
22 | O=C(O)C(F)(F)C(F)(F)C(F)(F)OC(F)(C(F)(F)F)C(F)(F)F | 11.42 | 30.05 | 0.232 | 0.003818 | 1014737 | 5.78 | 5.78 | 0.0021 | 
23 | O=S(=O)(Cl)C(F)(F)C(F)(F)C(F)(F)C(F)(F)C(F)(F)C(F)(F)C(F)(F)C(F)(F)F [Perfluoro-1-octanesulfonyl chloride] |  |  |  |  |  |  |  |  | 0.00
24 | O=S(=O)([O-])C(F)(F)C(F)(F)C(F)(F)C(F)(F)F.[K+] [Potassium perfluorobutanesulfonate] |  |  |  |  |  |  |  |  | 0.00
25 | O=C(O)C(F)(F)C(F)(F)C(F)(F)C(F)(F)C(F)(F)C(F)(F)C(F)(F)C(F)(F)C(F)(F)C(F)(F)C(F)(F)C(F)(F)C(F)(F)F [Perfluorotetradecanoic acid] |  |  |  |  |  |  |  |  | 0.00
26 | O=C(O)C(F)(F)C(F)(F)C(F)(F)C(F)(F)C(F)(F)C(F)(F)C(F)(F)C(F)(F)C(F)(F)C(F)(F)F [Perfluoroundecanoic acid] |  |  |  |  |  |  |  |  | 0.00
27 | O=C([O-])C(F)(F)C(F)(F)C(F)(F)C(F)(F)C(F)(F)C(F)(F)C(F)(F)F.[K+] [Potassium perfluorooctanoate] |  |  |  |  |  |  |  |  | 0.00
